Laboratory results as given in ChEMBL document CHEMBL1201862, “PubChem BioAssay data set” (2004).
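The compound was tested at five concentrations on cells cultured in 96-well plates, with a 48-hour exposure period. Here, GI50 denotes the concentration required for 50% inhibition of growth.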 Activity calls are given as the source filed them. Cut-off read from the data, not from the text of the source: active = GI50 up to about 1.1 µM and inactive = higher.

Tests used:
Assay in all cases: inhibition of tumour cell growth, NCI panel, 48 h
[1] = test system: 786-0
[2] = test system: A498
[3] = test system: A549
[4] = test system: ACHN
[5] = test system: CCRF-CEM
[6] = test system: COLO 205
[7] = test system: DLD-1
[8] = test system: DMS-114
[9] = test system: DMS-273
[10] = test system: EKVX
[11] = test system: HCC 2998
[12] = test system: HCT-116
[13] = test system: HCT-15
[14] = test system: HL-60
[15] = test system: HOP-18
[16] = test system: HOP-62
[17] = test system: HT-29
[18] = test system: IGROV-1
[19] = test system: K562
[20] = test system: KM-20L2
[21] = test system: KM12
[22] = test system: LOX IMVI
[23] = test system: LXFL 529
[24] = test system: M14
[25] = test system: M19-MEL
[26] = test system: MOLT-4
[27] = test system: Malme-3M
[28] = test system: NCI-H226
[29] = test system: NCI-H23
[30] = test system: NCI-H460
[31] = test system: NCI-H522
[32] = test system: OVCAR-3
[33] = test system: OVCAR-5
[34] = test system: OVCAR-8
[35] = test system: RPMI-8226
[36] = test system: RXF 393
[37] = test system: SF-295
[38] = test system: SF-539
[39] = test system: SK-MEL-28
[40] = test system: SK-MEL-2
[41] = test system: SK-MEL-5
[42] = test system: SK-OV-3
[43] = test system: SN12C
[44] = test system: SNB-19
[45] = test system: SNB-75
[46] = test system: SNB-78
[47] = test system: SR
[48] = test system: SW-620
[49] = test system: TK-10
[50] = test system: U-251
[51] = test system: UACC-257
[52] = test system: UACC-62
[53] = test system: UO-31
[54] = test system: XF498
[55] = test system: HOP-92
[56] = test system: SF-268
[57] = test system: CAKI-1
[58] = test system: MCF7
[59] = test system: NCI/ADR-RES
[60] = test system: OVCAR-4

CC1COC(C)(C)P(=O)(c2ccccc2)C1 (stereo unspecified)
GI50 [1]: > 100 µM (inactive)
GI50 [2]: > 100 µM (inactive)
GI50 [3]: > 100 µM (inactive)
GI50 [4]: > 100 µM (inactive)
GI50 [5]: > 100 µM (inactive)
GI50 [6]: > 100 µM (inactive)
GI50 [7]: > 100 µM (inactive)
GI50 [8]: > 100 µM (inactive)
GI50 [9]: > 100 µM (inactive)
GI50 [10]: > 100 µM (inactive)
GI50 [11]: > 100 µM (inactive)
GI50 [12]: > 100 µM (inactive)
GI50 [13]: > 100 µM
GI50 [14]: > 100 µM (inactive)
GI50 [15]: > 100 µM (inactive)
GI50 [16]: > 100 µM (inactive)
GI50 [17]: > 100 µM (inactive)
GI50 [18]: > 100 µM (inactive)
GI50 [19]: > 100 µM (inactive)
GI50 [20]: > 100 µM (inactive)
GI50 [21]: > 100 µM (inactive)
GI50 [22]: > 100 µM (inactive)
GI50 [23]: > 100 µM (inactive)
GI50 [24]: > 100 µM (inactive)
GI50 [25]: > 100 µM (inactive)
GI50 [26]: > 100 µM (inactive)
GI50 [27]: > 100 µM (inactive)
GI50 [28]: > 100 µM (inactive)
GI50 [29]: > 100 µM (inactive)
GI50 [30]: > 100 µM (inactive)
GI50 [31]: > 100 µM (inactive)
GI50 [32]: > 100 µM (inactive)
GI50 [33]: > 100 µM (inactive)
GI50 [34]: > 100 µM (inactive)
GI50 [35]: > 100 µM (inactive)
GI50 [36]: > 100 µM (inactive)
GI50 [37]: > 100 µM (inactive)
GI50 [38]: > 100 µM (inactive)
GI50 [39]: > 100 µM (inactive)
GI50 [40]: > 100 µM (inactive)
GI50 [41]: > 100 µM (inactive)
GI50 [42]: > 100 µM (inactive)
GI50 [43]: > 100 µM (inactive)
GI50 [44]: > 100 µM (inactive)
GI50 [45]: 49.4 µM (inactive)
GI50 [46]: > 100 µM (inactive)
GI50 [47]: > 100 µM (inactive)
GI50 [48]: > 100 µM (inactive)
GI50 [49]: > 100 µM (inactive)
GI50 [50]: > 100 µM (inactive)
GI50 [51]: > 100 µM (inactive)
GI50 [52]: > 100 µM (inactive)
GI50 [53]: > 100 µM (inactive)
GI50 [54]: > 100 µM (inactive)

Cc1ccc2c(c1)C1C(CO2)C(c2ccccc2)=NN1c1ccccc1 (stereo unspecified)
GI50 [1]: > 100 µM (inactive)
GI50 [2]: > 100 µM (inactive)
GI50 [3]: > 100 µM (inactive)
GI50 [4]: > 100 µM (inactive)
GI50 [5]: > 100 µM (inactive)
GI50 [6]: > 100 µM (inactive)
GI50 [7]: > 100 µM (inactive)
GI50 [8]: > 100 µM (inactive)
GI50 [9]: > 100 µM (inactive)
GI50 [10]: > 100 µM (inactive)
GI50 [11]: 95.5 µM (inactive)
GI50 [12]: > 100 µM (inactive)
GI50 [14]: 72.3 µM (inactive)
GI50 [15]: > 100 µM (inactive)
GI50 [16]: > 100 µM (inactive)
GI50 [55]: 80.5 µM (inactive)
GI50 [17]: 69.5 µM (inactive)
GI50 [18]: > 100 µM (inactive)
GI50 [19]: > 100 µM (inactive)
GI50 [20]: > 100 µM (inactive)
GI50 [21]: > 100 µM (inactive)
GI50 [22]: > 100 µM (inactive)
GI50 [23]: > 100 µM (inactive)
GI50 [25]: > 100 µM (inactive)
GI50 [26]: 96.2 µM (inactive)
GI50 [27]: > 100 µM (inactive)
GI50 [29]: > 100 µM (inactive)
GI50 [30]: > 100 µM (inactive)
GI50 [31]: > 100 µM (inactive)
GI50 [32]: > 100 µM (inactive)
GI50 [33]: > 100 µM (inactive)
GI50 [34]: > 100 µM (inactive)
GI50 [35]: 45.7 µM (inactive)
GI50 [36]: > 100 µM (inactive)
GI50 [56]: > 100 µM (inactive)
GI50 [37]: > 100 µM (inactive)
GI50 [38]: > 100 µM (inactive)
GI50 [39]: > 100 µM (inactive)
GI50 [40]: > 100 µM (inactive)
GI50 [42]: > 100 µM (inactive)
GI50 [44]: > 100 µM (inactive)
GI50 [45]: > 100 µM (inactive)
GI50 [46]: > 100 µM (inactive)
GI50 [48]: > 100 µM (inactive)
GI50 [49]: > 100 µM (inactive)
GI50 [50]: > 100 µM (inactive)
GI50 [51]: > 100 µM (inactive)
GI50 [53]: > 100 µM (inactive)

CC(C)=CCc1c(O)ccc2c1OC1c3ccc(O)c(CC=C(C)C)c3OCC21 (stereo unspecified)
GI50 [2]: 11.9 µM (inactive)
GI50 [3]: 7.94 µM (inactive)
GI50 [57]: 9.02 µM (inactive)
GI50 [5]: 6.62 µM (inactive)
GI50 [6]: 17.3 µM (inactive)
GI50 [7]: 5.19 µM (inactive)
GI50 [8]: 11.4 µM (inactive)
GI50 [9]: 6.4 µM (inactive)
GI50 [10]: 5.62 µM (inactive)
GI50 [11]: 13.2 µM (inactive)
GI50 [12]: 5.12 µM (inactive)
GI50 [13]: 3.96 µM
GI50 [14]: 4.32 µM (inactive)
GI50 [15]: 17.6 µM (inactive)
GI50 [16]: 9.84 µM (inactive)
GI50 [55]: > 100 µM (inactive)
GI50 [17]: > 44.4 µM (inactive)
GI50 [18]: 10.3 µM (inactive)
GI50 [19]: 4.42 µM (inactive)
GI50 [20]: 18.7 µM (inactive)
GI50 [21]: 10.2 µM (inactive)
GI50 [22]: 6.81 µM (inactive)
GI50 [25]: 11.4 µM (inactive)
GI50 [58]: 8.89 µM (inactive)
GI50 [26]: 3.14 µM (inactive)
GI50 [27]: 17 µM (inactive)
GI50 [28]: 14 µM (inactive)
GI50 [29]: > 38.8 µM (inactive)
GI50 [30]: 5.15 µM (inactive)
GI50 [31]: 11.3 µM (inactive)
GI50 [59]: 8.09 µM (inactive)
GI50 [32]: 13.6 µM (inactive)
GI50 [60]: 11.2 µM (inactive)
GI50 [33]: 13.9 µM (inactive)
GI50 [34]: 8.22 µM (inactive)
GI50 [35]: 3.28 µM (inactive)
GI50 [36]: 8.09 µM (inactive)
GI50 [56]: 11.2 µM (inactive)
GI50 [37]: 11.6 µM (inactive)
GI50 [38]: 10.5 µM (inactive)
GI50 [39]: 13.4 µM (inactive)
GI50 [40]: 18 µM (inactive)
GI50 [41]: 5.98 µM (inactive)
GI50 [42]: 19.2 µM (inactive)
GI50 [43]: 14 µM (inactive)
GI50 [44]: 13.6 µM (inactive)
GI50 [45]: 15.9 µM (inactive)
GI50 [46]: 12.1 µM (inactive)
GI50 [48]: 6.79 µM (inactive)
GI50 [50]: 7.67 µM (inactive)
GI50 [51]: 13.8 µM (inactive)
GI50 [52]: 5.64 µM (inactive)
GI50 [53]: 11.7 µM (inactive)
GI50 [54]: 17.8 µM (inactive)
